The text below walks through data of patent US20080064668A1, “1,3-Diacylated, 26,27-Alkyl/Haloakyl Vitamin D3 Compounds and Methods of Use Thereof” (BioXell S.p.A., priority 2003, published 2008).

For series [1], the system named is HT 1376. The series is described as follows: Proliferation assay using bladder cancer cell lines, HT1376. The settings on record: 72 h culture, CyQuant proliferation assay. The series is classed as cell-based, human. Here is the method:
(§1) Bladder cancer cell lines (T24, RT112, HT1376 and RT4 are human bladder cancer cell lines; NHEK are normal human keratinocytes) were obtained from the European Collection of Cell Cultures (Salisbury, UK). Cells were plated at 3×10^3 per well, in flat bottomed 96-well plates in 100 μl of DMEM medium containing: 5% Fetal Clone I, 50 μg/l gentamicin, 1 mM sodium pyruvate and 1% non-essential amino acids. After culturing for 24 h at 37° C. in 5% CO2, to allow cells to adhere to the plates, VDR ligands (compounds (2), (4), (5) and other vitamin D3 analogs as shown in Table 4) were added at concentrations ranging from 100 μM to 0.3 μM in 100 μl of above-mentioned complete medium. After a further 72 h of culture, cell proliferation was measured using a fluorescence-based proliferation assay kit. (CyQuant Cell Proliferation Assay Kit, Molecular Probes, Eugene, Oreg., USA). The IC50 was calculated from the regression curve of the titration data.

In series [2] the test system is NHEK. The series is described as follows: Proliferation assay, NHEK normal human keratinocytes. The series is classed as cell-based. The settings on record: 72 h culture, CyQuant proliferation assay. Here is the method:
as §1

The test system of series [3] is RT112. The series is described as follows: Proliferation assay using bladder cancer cell lines, RT112. The series is classed as cell-based, human. As to conditions: 72 h culture, CyQuant proliferation assay. Here is the method:
as §1

The subject of series [4] is ECV. Nature of the series: Proliferation assay using bladder cancer cell lines, ECV. The series is classed as cell-based, human. The settings on record: 72 h culture, CyQuant proliferation assay.
Series [5] deals with RT4. Nature of the series: Proliferation assay using bladder cancer cell lines, RT4. The class given is cell-based, human. The settings on record: 72 h culture, CyQuant proliferation assay. The procedure:
as §1

Series [6] is described as follows: Determination of Maximum Tolerated Dose (MTD). As to conditions: for MTD at 4 days: female, C57BL/6, mouse, in vivo, po; for MTD compared with the corresponding dihydroxy (parent) compound: versus (1) or (3). The procedure: The maximum tolerated dose of the vitamin D3 compounds of the invention were determined in eight week-old female C57BL/6 mice (3 mice/group) dosed orally (0.1 ml/mouse) with various concentrations of Vitamin D3 analogs daily for four days. Analogs were formulated in miglyol for a final concentration of 0.01, 0.03, 0.1 0.3, 1, 3, 10, 30, 100 and 300 μg/kg when given at 0.1 ml/mouse p.o. daily. Blood for serum calcium assay was drawn by tail bleed on day five, the final day of the study.

Series [7] concerns IFN-γ production. Nature of the series: IFN-γ production in the mixed leukocyte response (MLR). As to conditions: 120 h; allogeneic PBMC from 2 donors, 5 days, ELISA; read-out: INF-γ IC50. The series is classed as cell-based. Here is the method:
Immature dendritic cells (DC) were prepared as described in Romani, N. et al. (Romani, N. et al. (1996) J. Immunol. Meth. 196:137). IFN-γ production by allogeneic T cell activation in the mixed leukocyte response (MLR) was determined as described in Penna, G., et al., J Immunol., 164: 2405-2411 (2000).
Briefly, peripheral blood mononuclear cells (PBMC) were separated from buffy coats by Ficoll gradient and the same number (3×10^5) of allogeneic PBMC from 2 different donors were co-cultured in 96-well flat-bottom plates. The vitamin D3 compounds were added to each of the cultures.

A short description of series [8]: MTD in CD1 mouse (highest non-hypercalcemic dose). As to conditions: in vivo.

“Also recorded” adds a separate entry of the source.

As for `CC(C/C=C\C(O)(C(F)(F)F)C(F)(F)F)C1=CCC2C(=CC=C3CC(O)CC(O)C3)CCCC12C` (stereo not shown) [(1), 1,25-dihydroxy-16,23Z-diene-26,27-hexafluoro-19-nor-cholecalciferol, reference compound], the 50% inhibitory concentration (IC50) in series [1] is 56 µM; in series [2], 4.4 µM; in series [3], 24 µM; in series [4] it was 58.7 µM; in series [5], 20 µM.

For `CC(CC#CC(O)(C(F)(F)F)C(F)(F)F)C1=CCC2C(=CC=C3CC(O)CC(O)C3)CCCC12C` (stereo not shown) [(3), 1,25-dihydroxy-16-ene-23-yne-26,27-hexafluoro-19-nor-cholecalciferol, reference compound], in series [6] (female C57BL/6 mice, p.o. daily for four days, highest dose without hypercalcemia (serum calcium >10.7 mg/dl)), the “MTD (mice)” value was 0.3 µg/kg.

Consider `CC(=O)OC1C/C(=C/C=C2\CCC[C@]3(C)C(C(C)CC#CC(O)(C(F)(F)F)C(F)(F)F)=CCC23)C[C@@H](OC(C)=O)C1` (stereo partly shown) [(4), 1,3-Di-O-acetyl-1,25-Dihydroxy-16-ene-23-yne-26,27-hexafluoro-19-nor-cholecalciferol], for which the half-inhibitory concentration (IC50) in series [1] (Homo sapiens, HT-1376) was greater than 100 µM; in series [2] (Homo sapiens, NHEK) it was 0.8 µM; in series [3] (Homo sapiens, RT-112, 72 h), 15 µM; in series [4] (Homo sapiens) it was 29 µM; in series [5] (Homo sapiens, RT-4, 72 h), 9 µM; in series [7], 0.525 nM. This molecule showed an MTD at 4 days in series [6] of 10 µg/kg. Besides, in series [6], the “MTD compared with the corresponding dihydroxy (parent) compound” value is reported as “significantly higher; also recorded: considerably greater”.

Consider `CC(=O)OC1C/C(=C/C=C2\CCC[C@]3(C)C(C(C)CC#CC(OC(C)=O)(C(F)(F)F)C(F)(F)F)=CCC23)C[C@@H](OC(C)=O)C1` (stereo partly shown) [(5), 1,3,25-Tri-O-acetyl-1,25-Dihydroxy-16-ene-23-yne-26,27-hexafluoro-19-nor-cholecalciferol], for which the IC50 in series [1] (Homo sapiens, HT-1376) is greater than 100 µM; in series [2] (Homo sapiens, NHEK), 25.6 µM; in series [3] (Homo sapiens, RT-112, 72 h), 13 µM; in series [4] (Homo sapiens), 32 µM; in series [5] (Homo sapiens, RT-4, 72 h), 7 µM; in series [7], 0.499 nM. The MTD at 4 days in series [6] worked out at 3 µg/kg. Besides, in series [6], the “MTD compared with the corresponding dihydroxy (parent) compound” value is “significantly higher; also recorded: considerably greater”.

In the case of `C=C1/C(=C\C=C2/CCC[C@]3(C)C(C(C)CC#CC(OC(C)=O)(C(F)(F)F)C(F)(F)F)=CCC23)CC(OC(C)=O)C[C@@H]1OC(C)=O` (stereo partly shown) [(13), 1,3,25-Tri-O-acetyl-1,25-dihydroxy-16-ene-23-yne-26,27-hexafluoro-cholecalciferol], the 50% inhibitory concentration (IC50) was 19.5 µM in series [2] (Homo sapiens, NHEK); 17 µM in series [3] (Homo sapiens, RT-112, 72 h); greater than 100 µM in series [4] (Homo sapiens); 95 µM in series [5] (Homo sapiens, RT-4, 72 h); 0.0401 nM in series [7]. The same molecule showed an MTD at 4 days in series [6] of 3 µg/kg.

For the molecule `C=C1/C(=C\C=C2/CCC[C@]3(C)C(C(C)C/C=C/[C@@](C)(O)C(F)(F)F)=CCC23)CC(OC(C)=O)C[C@@H]1OC(C)=O` (stereo partly shown) [(16), 1,3-Di-O-acetyl-1,25-dihydroxy-16,23E-diene-25R,26-trifluoro-cholecalciferol], the half-maximal inhibitory concentration (IC50) in series [1] (Homo sapiens, HT-1376) is greater than 100 µM; in series [2] (Homo sapiens, NHEK), 3.1 µM; in series [3] (Homo sapiens, RT-112, 72 h), 2 µM; in series [4] (Homo sapiens) it was 76.6 µM; in series [5] (Homo sapiens, RT-4, 72 h), 16 µM.

As for `CC(=O)OC1C/C(=C/C=C2\CCC[C@]3(C)C(C(C)CC#CC(C)(C)O)=CCC23)C[C@@H](OC(C)=O)C1` (stereo partly shown) [(20), 1,3-Di-O-Acetyl-1,25-dihydroxy-16-ene-23-yne-19-nor-cholecalciferol], the 50% inhibitory concentration (IC50) in series [1] (Homo sapiens, HT-1376) was greater than 100 µM; in series [2] (Homo sapiens, NHEK), 6.7 µM; in series [3] (Homo sapiens, RT-112, 72 h), 1 µM; in series [4] (Homo sapiens), 26.7 µM; in series [5] (Homo sapiens, RT-4, 72 h), 9 µM. Also, the MTD in series [8] was 30 µg/kg.

For the molecule `CCC(O)(C#CCC(C)C1=CCC2/C(=C/C=C3/CC(OC(C)=O)C[C@H](OC(C)=O)C3)CCC[C@]12C)CC` (stereo partly shown) [(22), 1,3-Di-O-acetyl-1,25-dihydroxy-16-ene-23-yne-26,27-bishomo-19-nor-cholecalciferol], the 50% inhibitory concentration (IC50) in series [1] (Homo sapiens, HT-1376) is greater than 100 µM; in series [2] (Homo sapiens, NHEK), 4.7 µM; in series [3] (Homo sapiens, RT-112, 72 h), 7 µM; in series [4] (Homo sapiens), 81.7 µM; in series [5] (Homo sapiens, RT-4, 72 h), 9 µM; in series [7], 0.0253 nM. The MTD at 4 days in series [6] amounted to 100 µg/kg.

In the case of `CC(=O)OC1C/C(=C/C=C2\CCC[C@@]3(C)C2CCC3C2(CC#CC(C)(C)O)CC2)C[C@@H](OC(C)=O)C1` (stereo partly shown) [(24), 1,3-Di-O-acetyl-1,25-dihydroxy-20-cyclopropyl-23-yne-19-nor-cholecalciferol], the IC50 was greater than 100 µM in series [1] (Homo sapiens, HT-1376); 6.8 µM in series [2] (Homo sapiens, NHEK); 18 µM in series [3] (Homo sapiens, RT-112, 72 h); 21.5 µM in series [4] (Homo sapiens); 7 µM in series [5] (Homo sapiens, RT-4, 72 h).

In the case of `CC(=O)OC1C/C(=C/C=C2\CCC[C@@]3(C)C2CCC3C2(C/C=C/C(O)(C(F)(F)F)C(F)(F)F)CC2)C[C@@H](OC(C)=O)C1` (stereo partly shown) [(31), 1,3-Di-O-acetyl-1,25-dihydroxy-20-cyclopropyl-23E-ene-26,27-hexafluoro-19-nor-cholecalciferol], the IC50 in series [1] (Homo sapiens, HT-1376) turned out to be 68 µM; in series [2] (Homo sapiens, NHEK), 0.9 µM; in series [3] (Homo sapiens, RT-112, 72 h), 7 µM; in series [4] (Homo sapiens), 24.3 µM; in series [5] (Homo sapiens, RT-4, 72 h) it was 9 µM. Besides, the MTD at 4 days in series [6] was determined as 0.3 µg/kg.

As for `CC(=O)OC1C/C(=C/C=C2\CCC[C@@]3(C)C2CCC3C2(C/C=C\C(O)(C(F)(F)F)C(F)(F)F)CC2)C[C@@H](OC(C)=O)C1` (stereo partly shown) [(33), 1,3-Di-O-acetyl-1,25-dihydroxy-20-cyclopropyl-23Z-ene-26,27-hexafluoro-19-nor-cholecalciferol], the IC50 in series [1] (Homo sapiens, HT-1376) was greater than 100 µM; in series [2] (Homo sapiens, NHEK), 0.9 µM; in series [3] (Homo sapiens, RT-112, 72 h) it was 16 µM; in series [4] (Homo sapiens) it was greater than 100 µM; in series [5] (Homo sapiens, RT-4, 72 h), 18 µM.

Regarding `CC(=O)OC1C/C(=C/C=C2\CCC[C@]3(C)C(C4(CCCC(C)(C)O)CC4)=CCC23)C[C@@H](OC(C)=O)C1` (stereo partly drawn) [(37), 1,3-Di-O-acetyl-1α,25-dihydroxy-16-ene-20-cyclopropyl-19-nor-cholecalciferol], the IC50 in series [3] (Homo sapiens, RT-112, 72 h) was found to be 17.4 µM; in series [5] (Homo sapiens, RT-4, 72 h) it was 3 µM; in series [7], 0.068 nM. In addition, the MTD at 4 days in series [6] was 10 µg/kg.

Turning to `C=C1/C(=C\C=C2/CCC[C@]3(C)C(C4(CCCC(C)(C)O)CC4)=CCC23)CC(OC(C)=O)C[C@@H]1OC(C)=O` (stereo partly drawn) [(39), 1,3-Di-O-acetyl-1α,25-hydroxy-16-ene-20-cyclopropyl-cholecalciferol], the IC50 in series [3] (Homo sapiens, RT-112, 72 h) stood at 21.5 µM; in series [5] (Homo sapiens, RT-4, 72 h), 2.8 µM; in series [7] it was 0.045 nM. The molecule further showed an MTD at 4 days in series [6] of 3 µg/kg.
